Assay results from US4537777A, “A52688 Antibiotics and process for their production” (priority 1983, dated 1985).
Where two headings read alike, the source gives them in different places.

Columns and labels:
[1] = tested on: Saccharomyces pastorianus; assay: standard disc-plate assay; format: cell-based; conditions: read-out: Zone Diameters
Pseudomonas solanacearum = assay: microbe, parasite or virus in culture; format: cell-based; conditions: Ralstonia solanacearum, read-out: Zone Diameters
Proteus vulgaris = assay: standard disc-plate assay; format: cell-based; conditions: read-out: Zone Diameters
Micrococcus luteus = assay: standard disc-plate assay; format: cell-based; conditions: read-out: Zone Diameters
Escherichia coli = assay: standard disc-plate assay; format: cell-based
Procedure: In Table IX the standard discplate-assay activity of the A52688 factors is summarized. Activity is measured as the diameter (in mm) of the observed zone of inhibition; the diameter of the disc used in each case was 6.35 mm.

Salmonella gallinarium = assay: standard disc-plate assay; format: cell-based; conditions: read-out: Zone Diameters
acute toxicity in mice = conditions: mouse, in vivo, ip, intraperitoneal, formulated in aqueous PVP, read-out: Intraperitoneal LD50
Text: ^a Compounds formulated in aqueous PVP
^b Route test compound administered

Candida albicans = assay: standard disc-plate assay; format: cell-based; conditions: read-out: Zone Diameters
Adenocarcinoma 755 = assay: murine-transplanted tumor adenocarcinoma 755 in mice; format: in vivo
Procedure: A52688 factors A, C, D, E, F, G, H, J and K and the specified acyl esters of factors A, C, D, E, G, H, J and K are especially useful as oncolytic agents.
Table X summarizes the results of experiments in which mice bearing the murine-transplanted tumor adenocarcinoma 755 were treated with compounds of this invention. In each test the compound was administered by the intraperitoneal route at specified dose levels. The compound was administered over a ten-day period, either on a daily basis or on days one, five and nine, as indicated.

[2] = tested on: Bacillus stereothermophilus; assay: standard disc-plate assay; format: cell-based; conditions: read-out: Zone Diameters
Bacillus subtilis = assay: standard disc-plate assay; format: cell-based; conditions: read-out: Zone Diameters
Mycobacterium avium = assay: standard disc-plate assay; format: cell-based; conditions: read-out: Zone Diameters
Neurospora crassa = assay: standard disc-plate assay; format: cell-based; conditions: read-out: Zone Diameters
Serratia marcescens = assay: standard disc-plate assay; format: cell-based; conditions: read-out: Zone Diameters
[3] = tested on: Trichophyton mentagroprophytes; assay: standard disc-plate assay; format: cell-based; conditions: read-out: Zone Diameters
Staphylococcus aureus = assay: standard disc-plate assay; format: cell-based; conditions: read-out: Zone Diameters
Pseudomonas aeruginosa = assay: standard disc-plate assay; format: cell-based; conditions: read-out: Zone Diameters
[4] = read-out: Zone Diameters, conc 0.1 mg/ml, disc 6.35 mm
[5] = read-out: Zone Diameters, in minimal medium, conc 0.1 mg/ml, disc 6.35 mm
[6] = 0.25 mg/kg i.p., daily for 10 days
[7] = 0.25 mg/kg i.p., daily for 10 days, of 10 mice tested (9 for factor E)
[8] = 0.50 mg/kg i.p., daily for 10 days
[9] = 0.50 mg/kg i.p., daily for 10 days, of 10 mice tested (8 for factor E)
[10] = 1.00 mg/kg i.p., daily for 10 days
[11] = 1.00 mg/kg i.p., daily for 10 days, of 10 (factor E) or 9 (factor F) mice tested
[12] = conc 0.1 mg/ml, disc 6.35 mm, ^b overgrowth: factors B, C, F
[13] = conc 0.1 mg/ml, disc 6.35 mm, ^b overgrowth: factors A, C, E, F, G
[14] = conc 0.1 mg/ml, disc 6.35 mm, read-out: Zone Diameters
[15] = in minimal medium, conc 0.1 mg/ml, disc 6.35 mm, read-out: Zone Diameters
[16] = conc 0.1 mg/ml, disc 6.35 mm, ^b overgrowth: factor F
[17] = conc 0.1 mg/ml, disc 6.35 mm, ^b overgrowth: factor C
[18] = conc 0.1 mg/ml, disc 6.35 mm, ^b overgrowth: factor B

Compound	zone of inhibition at 100 µg/mL [1] [mm]	zone of inhibition at 100 µg/mL (Pseudomonas solanacearum; conc 0.1 mg/ml) [mm]	zone of inhibition at 100 µg/mL (Proteus vulgaris) [mm]	zone of inhibition at 100 µg/mL (Micrococcus luteus) [mm]	zone of inhibition at 100 µg/mL (Escherichia coli; [4]) [mm]	zone of inhibition at 100 µg/mL (Escherichia coli; [5]) [mm]	LD50 (acute toxicity in mice) [mg/kg]	zone of inhibition at 100 µg/mL [1, 12] [mm]	zone of inhibition at 100 µg/mL (Pseudomonas solanacearum) [mm]	zone of inhibition at 100 µg/mL (Proteus vulgaris; [13]) [mm]	zone of inhibition at 100 µg/mL (Micrococcus luteus; conc 0.1 mg/ml, disc 6.35 mm) [mm]	zone of inhibition at 100 µg/mL (Escherichia coli; [14]) [mm]	zone of inhibition at 100 µg/mL (Salmonella gallinarium; conc 0.1 mg/ml, disc 6.35 mm) [mm]	zone of inhibition at 100 µg/mL (Candida albicans; conc 0.1 mg/ml, disc 6.35 mm) [mm]	zone of inhibition at 100 µg/mL ([2]; conc 0.1 mg/ml, disc 6.35 mm) [mm]	zone of inhibition at 100 µg/mL (Bacillus subtilis; conc 0.1 mg/ml, disc 6.35 mm) [mm]	zone of inhibition at 100 µg/mL (Mycobacterium avium; [16]) [mm]	zone of inhibition at 100 µg/mL (Neurospora crassa; conc 0.1 mg/ml, disc 6.35 mm) [mm]	zone of inhibition at 100 µg/mL ([3]; conc 0.1 mg/ml, disc 6.35 mm) [mm]	zone of inhibition at 100 µg/mL (Staphylococcus aureus; [18]) [mm]	further results
[C-]#[N+]C(=CC1=C[C@@H](O)[C@H](O)CC1)C(=CC1CCC(O)CC1)[N+]#[C-] (relative stereo) [Factor C]	15	20	26	33	24	20	< 2.34	–	–	–	–	–	–	–	–	–	–	–	–	–	zone of inhibition at 100 µg/mL (Salmonella gallinarium): 38 mm; zone of inhibition at 100 µg/mL (Candida albicans): 16 mm; Percent Tumor Inhibition (Adenocarcinoma 755; 0.125 mg/kg i.p., daily for 10 days): 60%; Toxic Deaths (Adenocarcinoma 755; 0.125 mg/kg i.p., daily for 10 days, of 10 mice tested): 0; Percent Tumor Inhibition (Adenocarcinoma 755; [6]): 47%; Toxic Deaths (Adenocarcinoma 755; [7]): 0; Percent Tumor Inhibition (Adenocarcinoma 755; [8]): 72%; Toxic Deaths (Adenocarcinoma 755; [9]): 5; zone of inhibition at 100 µg/mL [2]: 35 mm; zone of inhibition at 100 µg/mL (Bacillus subtilis): 23 mm; zone of inhibition at 100 µg/mL (Mycobacterium avium): 18 mm; zone of inhibition at 100 µg/mL (Neurospora crassa): 22 mm; zone of inhibition at 100 µg/mL (Serratia marcescens): 15 mm; zone of inhibition at 100 µg/mL [3]: 15 mm; zone of inhibition at 100 µg/mL (Staphylococcus aureus): 16 mm
[C-]#[N+]C(=CC1=C[C@@H](O)[C@@H](O)CC1)C(=CC1CCC(OC(=O)C=C(C)C)CC1)[N+]#[C-] (relative stereo) [Factor E]	20	24	21	24	18	16	3.54	–	–	–	–	–	–	–	–	–	–	–	–	–	zone of inhibition at 100 µg/mL (Salmonella gallinarium): 19 mm; zone of inhibition at 100 µg/mL (Candida albicans): 29 mm; Percent Tumor Inhibition (Adenocarcinoma 755; [6]): 22%; Toxic Deaths (Adenocarcinoma 755; [7]): 0; Percent Tumor Inhibition (Adenocarcinoma 755; [8]): 74%; Toxic Deaths (Adenocarcinoma 755; [9]): 3; Percent Tumor Inhibition (Adenocarcinoma 755; [10]): toxic; Toxic Deaths (Adenocarcinoma 755; [11]): 10; zone of inhibition at 100 µg/mL [2]: 30 mm; zone of inhibition at 100 µg/mL (Bacillus subtilis): 29 mm; zone of inhibition at 100 µg/mL (Mycobacterium avium): 15 mm; zone of inhibition at 100 µg/mL (Neurospora crassa): 34 mm; zone of inhibition at 100 µg/mL (Serratia marcescens): 17 mm; zone of inhibition at 100 µg/mL [3]: 43 mm; zone of inhibition at 100 µg/mL (Staphylococcus aureus): 21 mm; zone of inhibition at 100 µg/mL (Pseudomonas aeruginosa): 17 mm
[C-]#[N+]C(=CC1=C[C@@H](OC(C)=O)[C@H](O)CC1)C(=CC1CCC(OC(=O)C=C(C)C)CC1)[N+]#[C-] (relative stereo) [Factor H]	–	–	–	–	–	–	–	16	18	17	27	15	16	18	24	16	10	33	35	20	zone of inhibition at 100 µg/mL (Escherichia coli; [15]): 10 mm; zone of inhibition at 100 µg/mL (Serratia marcescens; [17]): 10 mm; zone of inhibition at 100 µg/mL (Pseudomonas aeruginosa; conc 0.1 mg/ml, disc 6.35 mm): 11 mm
[C-]#[N+]C(=CC1=C[C@@H](OC)[C@@H](O)CC1)C(=CC1CCC(OC(=O)C=C(C)C)CC1)[N+]#[C-] (relative stereo) [Factor J]	19	21	22	29	15	13	–	–	–	–	–	–	–	–	–	–	–	–	–	–	zone of inhibition at 100 µg/mL (Salmonella gallinarium): 17 mm; zone of inhibition at 100 µg/mL (Candida albicans): 22 mm; zone of inhibition at 100 µg/mL [2]: 25 mm; zone of inhibition at 100 µg/mL (Bacillus subtilis): 19 mm; zone of inhibition at 100 µg/mL (Mycobacterium avium): 14 mm; zone of inhibition at 100 µg/mL (Neurospora crassa): 36 mm; zone of inhibition at 100 µg/mL (Serratia marcescens): 12 mm; zone of inhibition at 100 µg/mL [3]: 37 mm; zone of inhibition at 100 µg/mL (Staphylococcus aureus): 23 mm; zone of inhibition at 100 µg/mL (Pseudomonas aeruginosa): 12 mm
O=CNC=Cc1ccc(O)cc1 [Factor B]	–	–	–	–	–	–	> 75	14	–	–	22	–	–	11	21	21	–	24	19	25	–
[C-]#[N+]C(=Cc1ccc(O)cc1)C(=CC1CCC(OC(=O)C=C(C)C)CC1)[N+]#[C-] (stereo not shown) [Factor D]	–	–	–	–	–	–	0.992	13	17	12	26	15	14	19	21	18	13	22	21	18	zone of inhibition at 100 µg/mL (Escherichia coli; [15]): 11 mm; zone of inhibition at 100 µg/mL (Serratia marcescens; [17]): 12 mm; zone of inhibition at 100 µg/mL (Pseudomonas aeruginosa; conc 0.1 mg/ml, disc 6.35 mm): 13 mm
[C-]#[N+]C(=CC1CCC(OC(=O)C=C(C)C)CC1)C(=CC1(OC(C)=O)C=CC(=O)CC1)[N+]#[C-] (stereo not shown) [Factor F]	–	–	–	–	–	–	5	22	10	20	30	17	11	21	27	27	17	33	20	26	Percent Tumor Inhibition (Adenocarcinoma 755; [6]): 51%; Toxic Deaths (Adenocarcinoma 755; [7]): 0; Percent Tumor Inhibition (Adenocarcinoma 755; [8]): 69%; Toxic Deaths (Adenocarcinoma 755; [9]): 0; Percent Tumor Inhibition (Adenocarcinoma 755; [10]): 91%; Toxic Deaths (Adenocarcinoma 755; [11]): 2; Percent Tumor Inhibition (Adenocarcinoma 755; 2.00 mg/kg i.p., daily for 10 days): toxic; Toxic Deaths (Adenocarcinoma 755; 2.00 mg/kg i.p., daily for 10 days, of 10 mice tested): 10
[C-]#[N+]C(=CC1CCC(OC(=O)C=C(C)C)CC1)C(=CC1(OC(C)=O)C=CC(O)CC1)[N+]#[C-] (stereo not shown) [Factor G]	–	–	–	–	–	–	7.94	24	31	27	32	20	23	35	33	30	10	41	44	36	zone of inhibition at 100 µg/mL (Escherichia coli; [15]): 18 mm; Percent Tumor Inhibition (Adenocarcinoma 755; 0.50 mg/kg i.p., days 1, 5 and 9): 10%; Toxic Deaths (Adenocarcinoma 755; 0.50 mg/kg i.p., days 1, 5 and 9, of 10 mice tested): 0; Percent Tumor Inhibition (Adenocarcinoma 755; 0.70 mg/kg i.p., days 1, 5 and 9): 20%; Toxic Deaths (Adenocarcinoma 755; 0.70 mg/kg i.p., days 1, 5 and 9, of 10 mice tested): 0; Percent Tumor Inhibition (Adenocarcinoma 755; 1.00 mg/kg i.p., days 1, 5 and 9): 54%; Toxic Deaths (Adenocarcinoma 755; 1.00 mg/kg i.p., days 1, 5 and 9, of 10 mice tested): 1; Percent Tumor Inhibition (Adenocarcinoma 755; 1.40 mg/kg i.p., days 1, 5 and 9): 72%; Toxic Deaths (Adenocarcinoma 755; 1.40 mg/kg i.p., days 1, 5 and 9, of 10 mice tested): 6; Percent Tumor Inhibition (Adenocarcinoma 755; 2.00 mg/kg i.p., days 1, 5 and 9): 60%; Toxic Deaths (Adenocarcinoma 755; 2.00 mg/kg i.p., days 1, 5 and 9, of 10 mice tested): 7; Percent Tumor Inhibition (Adenocarcinoma 755; 2.80 mg/kg i.p., days 1, 5 and 9): toxic; Toxic Deaths (Adenocarcinoma 755; 2.80 mg/kg i.p., days 1, 5 and 9, of 10 mice tested): 10; zone of inhibition at 100 µg/mL (Serratia marcescens; [17]): 17 mm; zone of inhibition at 100 µg/mL (Pseudomonas aeruginosa; conc 0.1 mg/ml, disc 6.35 mm): 23 mm
